Results from patent US5053337A, “DNA encoding an α2B -adrenergic receptor” (Neurogenetic Corporation, priority 1989, dated 1991).

Legend:
[1] = target: T1, human α2B -adrenergic receptor (NGC-α2B) (Homo sapiens, UniProt P18089)
T1 sequence (P18089 1-450): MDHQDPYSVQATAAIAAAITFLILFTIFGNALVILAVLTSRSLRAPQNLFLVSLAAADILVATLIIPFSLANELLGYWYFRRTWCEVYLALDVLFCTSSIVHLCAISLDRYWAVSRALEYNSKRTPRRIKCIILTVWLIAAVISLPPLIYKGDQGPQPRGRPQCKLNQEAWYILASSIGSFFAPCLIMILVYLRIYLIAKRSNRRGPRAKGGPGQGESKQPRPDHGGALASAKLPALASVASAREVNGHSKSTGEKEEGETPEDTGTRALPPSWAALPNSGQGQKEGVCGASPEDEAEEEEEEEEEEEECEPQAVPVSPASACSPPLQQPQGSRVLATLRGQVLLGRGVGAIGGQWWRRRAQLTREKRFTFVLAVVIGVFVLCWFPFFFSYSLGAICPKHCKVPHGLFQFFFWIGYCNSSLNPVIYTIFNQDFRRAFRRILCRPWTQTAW

[2] = target: T1, human α2B -adrenergic receptor (NGC-α2B); remark: listed apart in the source
[3] = target: T1, human α2B -adrenergic receptor (NGC-α2B); assay: biochemical

NCCc1c[nH]c2ccc(O)cc12 [Serotonin]
inhibition [1]: 15% | ability to compete with 3H-Rauwolscine for binding (in words) ([1]; pNGC-α2B transfected Cos-7 or Ltk- cell membranes): inability

O=C(c1ccc(F)cc1)C1CCN(CCn2c(=O)[nH]c3ccccc3c2=O)CC1 [Ketanserin]
nH (Hill Coefficient) [2]: 1.21 ± 0.12

COc1cccc(OC)c1OCCNCC1COc2ccccc2O1 (centres unmarked) [WB-4101]
nH (Hill Coefficient) [2]: 1.5 | Ki [3]: 55 nM
